Data from patent US6916800B2, “Combination therapy including a matrix metalloproteinase inhibitor and an antineoplastic agent” (Pfizer Inc, priority 1998, dated 2005).

Experiments:
PC-3 tumor cells = test: Pancreatic Cell (PC-3) Model: MMP inhibitor with cisplatin, tumor volume; format: in vivo; conditions: PC3 model, n=10
Description: 1. Pancreatic Cell (PC-3) Model:
In this study, the test groups were a vehicle control, Compound M14, Compound M14 with cisplatin and cisplatin alone with n=10 for each group. The tumors were measured with a caliper and the volume calculated using the formula for the volume of an elipsoid. The cisplatin dose was 10 mpk administered by the intraperitonal route on day 8 post injecion of tumor cells Compound M14, 50 mpk, was first administered about 6:00 pm the evening of the same day that the tumor cells were injected in the morning. The same dose of Compound M14 was administered bid for each following day. Tumor volume (mm^3) was measured on day 25.

Primary tumors = conditions: cited from earlier work
[1] = dose of 25 mg/kg/day; cited from earlier work
melanoma = conditions: 100 mg/kg; cited from earlier work
HT-29 tumors = test: HT-29 Tumor with Irinotecan: MMPI BID, endpoint 1.0 g; format: in vivo, Mice
Description: 6. HT-29 Tumor with Irinotecan
(§1) Mice were implanted with HT-29 tumors and allowed to grow to 50-100 mg. The animals were pair matched and this was considered Day 1. Treatment with MMPI was begun BID on Day 1 until the end of the experiment. Irinotecan was injected IP (100 or 50 mpk) QD for 5 days (days 1-5). Tumors were measured weekly until an endpoint of 1.0 g was reached.

[2] = 50 mg/kg bid. p.o.; cited from earlier work
[3] = dose dependent at 27, 125 and 375 µg; cited from earlier work
MX-1 tumors [4] = test: MX-1 Adjuvant Model: cyclophosphamide then MMPI, mean days to tumor weight of 1.5 g; format: in vivo, Mice
Description: Mice were implanted with MX-1 tumors and allowed to grow to 50-100 mm3. The animals were dosed with cyclophosphamide (100 or 80 mpk). This was considered Day 1. Two weeks later the animals were pair matched after tumor regression and dosing BID with the MMPI was begun until the end of the experiment. Tumors were measured weekly.

[5] = tested on: advanced, rapidly progressive, treatment-refractory solid tumor cancers (colorectal, pancreatic, ovarian, prostate); conditions: cited from earlier work
[6] = doses of 15 mg/kg/day; cited from earlier work
colonic epithelia = conditions: variety of cell model systems including colonic epithelia; cited from earlier work
MX-1 breast tumor = test: Breast Tumor Model: MX-1 with Compound M14 and Taxol, tumor volume; format: in vivo, nude mice; conditions: for Tumor Volume at Day 25: MX-1 model, nude mice
Description: This study was carried out essentially as PC-3 model. MX-1 breast tumor pieces were implanted (with a trocar) into nude mice with n=10 per group. Dosing with Compound M14 (10 mpk or 50 mpk, PO bid) was initiated when the tumors reached a size of 60-120 mg. Dosing was continued for 26 days. Taxol was administered at a dose of 9 mpk for the first five days following the start of dosing by the interperitonal route. The tumors were measured using a caliper and the volume calculated using the formula for the volume of an elipsoid.

SK-mes tumors = test: SK-mes Tumor with Taxol: MMPI BID, endpoint 1.0 g; format: in vivo, Mice
Description: 5. SK-mes Tumor with Taxol
as §1, with “with SK-mes” for “with HT-29”, “experiment. Taxol” for “experiment. Irinotecan”, “IP (18” for “IP (100”, “or 9” for “or 50”

MX-1 tumors [7] = test: MX-1 Breast Tumor with Taxol: MMPI BID, endpoint 1.5 g; format: in vivo, Mice; conditions: MX-1 tumor
Description: MDS=mean days to tumor weight of 1.5 g 4. MX-1 Breast Tumor with Taxol:
Mice were implanted with MX-1 tumors and allowed to grow to 50-100 mg. The animals were pair matched and this was considered Day 1. Treatment with MMPI was begun BID on Day 1 until the end of the experiment. […] Tumors were measured weekly until an endpoint of 1.5 g was reached.

[8] = mmpi alone, Compound M14 20 mpk BID
[9] = mmpi alone, Compound M14 100 mpk BID
[10] = taxol 9 mpk + Compound M14 20 mpk BID
[11] = taxol 9 mpk + Compound M14 100 mpk BID
[12] = taxol 18 mpk + Compound M14 20 mpk BID
[13] = taxol 18 mpk + Compound M14 100 mpk BID

N.N.[Cl][Pt][Cl] [cisplatin, Platinum, diamminedichloro-, (SP-4-2)-, reference compound]
Tumor Volume at Day 25 (PC-3 tumor cells; cisplatin alone, 10 mpk intraperitoneal on day 8): 630 mm^3

endostatin
toxicity (Primary tumors; in vivo): not observed | primary tumor response (Primary tumors; non-refolded suspensions): regressed to dormant microscopic lesions

CC1(C)SCCN(S(=O)(=O)c2ccc(Oc3ccc(-n4ccnc4)cc3)cc2)[C@H]1C(=O)NO [3(S)-N-hydroxy-4-(4-[4-(imidazol-1-yl)phenoxy]benzenesulfonyl)-2,2-dimethyl-tetrahydro-2H-1,4-thiazine-3-carboxamide]
weight loss inhibition [1]: gave 97.5%

2-Pyrolylthiochromone
inhibition (melanoma): 37%

CCc1c2c(nc3ccc(OC(=O)N4CCC(N5CCCCC5)CC4)cc13)-c1cc3c(c(=O)n1C2)COC(=O)[C@]3(O)CC [Irinotecan, reference compound]
MDS (MDS = 1.0 g) (HT-29 tumors; Irinotecan alone 50 mpk IP QD days 1-5): 38.1 days | MDS (MDS = 1.0 g) (HT-29 tumors; Irinotecan alone 100 mpk IP QD days 1-5): 36.7 days

CNC(=O)[C@H](CC1CCCCC1)NC(=O)[C@H](CC(C)C)[C@H](O)C(=O)NO (relative stereo) [BB-1433, Butanediamide, N1-[1(cyclohexylmethyl)-2(methylamino)-2-oxoethyl]-N4,3-dihydroxy-2-(2-methylpropyl)-, [2R[N1(S*),2R*,3S*]]-]
bone mineral density loss [2]: inhibited

CC(C)(S)[C@@H](N)C(=O)O [D-penicillamine]
allergic encephalitis symptom scores [3]: reduced

O=P1(N(CCCl)CCCl)NCCCO1 (stereo not shown) [cyclophosphamide, reference compound]
MDS (mean days to tumor weight of 1.5 g) (MX-1 tumors [4]; cyclophosphamide 80 mpk alone): 37.2 days | MDS (mean days to tumor weight of 1.5 g) (MX-1 tumors [4]; cyclophosphamide 100 mpk alone): 39.5 days

CNC(=O)[C@@H](NC(=O)[C@H](CC(C)C)[C@H](O)C(=O)NO)C(C)(C)C (relative stereo) [marimastat, N4-[2,2-dimethyl-1-[(methylamino)carbonyl]propyl]-N1,2-dihydroxy-3 (2-methylpropyl)-, [2S-[N4(R*),2R*,3S*]]-)]
most common drug-related toxicity ([5]; clinical trials): musculoskeletal pain and stiffness | rise of cancer-specific antigens used as surrogate markers for biological activity ([5]; patients, Phase I/II): dose-related reduction

C[C@H](CCC(=O)O)[C@H]1CC[C@H]2[C@@H]3[C@@H](O)C[C@@H]4C[C@H](O)CC[C@]4(C)[C@H]3CC[C@]12C [URSO]
tolerability and toxicity [6]: extremely well tolerated and without toxicity | cytotoxicity (colonic epithelia): non cytotoxic

C#CCN1CCC(C(=O)NO)(S(=O)(=O)c2ccc(Sc3ccccc3)cc2)CC1.Cl [Compound M14, N-hydroxy-4-[[4-(phenylthio)phenyl]sulfonyl]-1-(2-propynyl)-4-piperidinecarboxamide monohydrochloride]
response (tumor volume) (MX-1 breast tumor; Compound M14 10 mpk or 50 mpk PO bid for 26 days with Taxol 9 mpk for the first five days): improved response | Tumor Volume at Day 25 (MX-1 breast tumor; Compound M14 @ 10 mpk + taxol @ 9 mpk): 240 mm^3 | Tumor Volume at Day 25 (MX-1 breast tumor; Compound M14 @ 10 mpk PO bid alone): 960 mm^3 | Tumor Volume at Day 25 (MX-1 breast tumor; Compound M14 @ 50 mpk + taxol @ 9 mpk): 480 mm^3 | Tumor Volume at Day 25 (MX-1 breast tumor; Compound M14 @ 50 mpk PO bid alone): 1260 mm^3 | Tumor Volume at Day 25 (PC-3 tumor cells; Compound M14 50 mpk bid with cisplatin 10 mpk ip day 8): 110 mm^3 | Tumor Volume at Day 25 (PC-3 tumor cells; Compound M14 alone, 50 mpk bid): 480 mm^3 | MDS (MDS = 1.0 g) (SK-mes tumors; [8]): 18 days | MDS (MDS = 1.0 g) (SK-mes tumors; [9]): 24.7 days | MDS (MDS = 1.0 g) (SK-mes tumors; [10]): 34.1 days | MDS (MDS = 1.0 g) (SK-mes tumors; [11]): 34.8 days | MDS (MDS = 1.0 g) (SK-mes tumors; [12]): 39.5 days | MDS (MDS = 1.0 g) (SK-mes tumors; [13]): 43 days | MDS (MDS = 1.5 g) (MX-1 tumors [7]; [8]): 34.7 days | MDS (MDS = 1.5 g) (MX-1 tumors [7]; [9]): 32.2 days | MDS (MDS = 1.5 g) (MX-1 tumors [7]; [10]): 39.3 days | MDS (MDS = 1.5 g) (MX-1 tumors [7]; [11]): 46.7 days | MDS (MDS = 1.5 g) (MX-1 tumors [7]; [12]): 59.3 days | MDS (MDS = 1.5 g) (MX-1 tumors [7]; [13]): 61 days | MDS (MDS = 1.5 g) (MX-1 tumors [7]; taxol + mmpi as printed, taxol 9 mpk IP QD days 1-5, no MMPI dose printed): 30.1 days | MDS (MDS = 1.5 g) (MX-1 tumors [7]; taxol + mmpi as printed, taxol 18 mpk IP QD days 1-5, no MMPI dose printed): 56 days | MDS (mean days to tumor weight of 1.5 g) (MX-1 tumors [4]; cyclophosphamide 0 mpk (so in the source), then Compound M14 200 mpk BID): 53.9 days | MDS (mean days to tumor weight of 1.5 g) (MX-1 tumors [4]; cyclophosphamide 80 mpk, then Compound M14 50 mpk BID): 44.2 days | MDS (mean days to tumor weight of 1.5 g) (MX-1 tumors [4]; cyclophosphamide 100 mpk, then Compound M14 50 mpk BID): 43.7 days | MDS (mean days to tumor weight of 1.5 g) (MX-1 tumors [4]; cyclophosphamide 100 mpk, then Compound M14 200 mpk BID): 52.7 days | MDS (MDS = 1.0 g) (HT-29 tumors; Irinotecan 50 mpk + Compound M14 20 mpk BID): 36.1 days | MDS (MDS = 1.0 g) (HT-29 tumors; Irinotecan 50 mpk + Compound M14 100 mpk BID): 44.4 days | MDS (MDS = 1.0 g) (HT-29 tumors; Irinotecan 100 mpk + Compound M14 20 mpk BID): 40.6 days | MDS (MDS = 1.0 g) (HT-29 tumors; Irinotecan 100 mpk + Compound M14 100 mpk BID): 51.4 days | MDS (MDS = 1.0 g) (HT-29 tumors; [8]): 36 days | MDS (MDS = 1.0 g) (HT-29 tumors; [9]): 37.9 days

CC(=O)O[C@H]1C(=O)[C@@]2(C)[C@H]([C@H](OC(=O)c3ccccc3)[C@]3(O)C[C@H](OC(=O)[C@H](O)[C@@H](NC(=O)c4ccccc4)c4ccccc4)C(C)=C1C3(C)C)[C@]1(OC(C)=O)CO[C@@H]1C[C@@H]2O [Taxol, reference compound]
Tumor Volume at Day 25 (MX-1 breast tumor; taxol alone, 9 mpk ip first five days): 1280 mm^3 | MDS (MDS = 1.0 g) (SK-mes tumors; taxol alone 9 mpk IP QD days 1-5): 26.1 days | MDS (MDS = 1.0 g) (SK-mes tumors; taxol alone 18 mpk IP QD days 1-5): 31.5 days
